Measured values as given in the NIST ThermoML archive (doi:10.1021/je500275j).
± gives the expanded uncertainty stated by the source.

How the values were obtained:
[1] = refractive index (Na D-line) (dimensionless); conditions: 293.15 K; 101.33 kPa; Liquid; Standard Abbe refractometry
[2] = for viscosity / mass density: 100 kPa, Liquid; for viscosity: Falling or rolling sphere viscometry; for mass density: Vibrating tube method
[3] = xn = mol fraction of the nth substance listed; conditions: 100 kPa, Liquid; for viscosity: Falling or rolling sphere viscometry; for mass density: Vibrating tube method

CCC1CCCCC1 [ethylcyclohexane]
Conditions	refractive index
[1]	1.4275 ± 0.004

[2]
Conditions	mass density [kg/m3]	viscosity [mPa·s]
293.15 K	788.23 ± 0.15	0.851 ± 0.012
298.15 K	784.2 ± 0.15	0.796 ± 0.012
303.15 K	780.16 ± 0.15	0.748 ± 0.011
308.15 K	776.11 ± 0.15	0.704 ± 0.011
313.15 K	772.04 ± 0.15	0.665 ± 0.011
318.15 K	767.96 ± 0.15	0.629 ± 0.011

C1CCC(C2CCCCC2)CC1 [1,1'-bicyclohexyl]
Conditions	refractive index
[1]	1.4787 ± 0.004

[2]
Conditions	mass density [kg/m3]	viscosity [mPa·s]
293.15 K	886.39 ± 0.15	4.017 ± 0.033
298.15 K	882.79 ± 0.15	3.541 ± 0.029
303.15 K	879.19 ± 0.15	3.145 ± 0.026
308.15 K	875.6 ± 0.15	2.817 ± 0.023
313.15 K	872.01 ± 0.15	2.54 ± 0.022
318.15 K	868.43 ± 0.15	2.302 ± 0.02

Conditions	Normal melting temperature [°C]
[2], Crystal, DTA	2.60 ± 6

CCCCC1CCCCC1 [butylcyclohexane]
Conditions	refractive index
[1]	1.4399 ± 0.004

[2]
Conditions	mass density [kg/m3]	viscosity [mPa·s]
293.15 K	799.6 ± 0.15	1.3 ± 0.014
298.15 K	795.85 ± 0.15	1.198 ± 0.013
303.15 K	792.1 ± 0.15	1.109 ± 0.013
308.15 K	788.33 ± 0.15	1.03 ± 0.013
313.15 K	784.56 ± 0.15	0.96 ± 0.012
318.15 K	780.78 ± 0.15	0.898 ± 0.012

CC1CCCCC1 [methylcyclohexane] + C1CCC(C2CCCCC2)CC1
[3], x2 = 0
Conditions	mass density [kg/m3]	viscosity [mPa·s]
293.15 K	769.58 ± 0.15	0.733 ± 0.011
298.15 K	765.23 ± 0.15	0.687 ± 0.011
303.15 K	760.89 ± 0.15	0.645 ± 0.011
308.15 K	756.53 ± 0.15	0.608 ± 0.011
313.15 K	752.17 ± 0.16	0.575 ± 0.011
318.15 K	747.78 ± 0.16	0.545 ± 0.011

CC1CCCCC1 [methylcyclohexane]
Conditions	refractive index
[1]	1.4175 ± 0.004

[2]
Conditions	mass density [kg/m3]	viscosity [mPa·s]
293.15 K	769.58 ± 0.15	0.733 ± 0.011
298.15 K	765.23 ± 0.15	0.687 ± 0.011
303.15 K	760.89 ± 0.15	0.645 ± 0.011
308.15 K	756.53 ± 0.15	0.608 ± 0.011
313.15 K	752.17 ± 0.16	0.575 ± 0.011
318.15 K	747.78 ± 0.16	0.545 ± 0.011

CCCCC1CCCCC1 [butylcyclohexane] + C1CCC(C2CCCCC2)CC1
[3], x2 = 0
Conditions	mass density [kg/m3]	viscosity [mPa·s]
293.15 K	799.6 ± 0.15	1.3 ± 0.014
298.15 K	795.85 ± 0.15	1.198 ± 0.013
303.15 K	792.1 ± 0.15	1.109 ± 0.013
308.15 K	788.33 ± 0.15	1.03 ± 0.013
313.15 K	784.56 ± 0.15	0.96 ± 0.012
318.15 K	780.78 ± 0.15	0.898 ± 0.012

C1CCC(C2CCCCC2)CC1 [1,1'-bicyclohexyl] + CCC1CCCCC1
[3], x1 = 1
Conditions	mass density [kg/m3]	viscosity [mPa·s]
293.15 K	886.39 ± 0.15	4.017 ± 0.033
298.15 K	882.79 ± 0.15	3.541 ± 0.029
303.15 K	879.19 ± 0.15	3.145 ± 0.026
308.15 K	875.6 ± 0.15	2.817 ± 0.023
313.15 K	872.01 ± 0.15	2.54 ± 0.022
318.15 K	868.43 ± 0.15	2.302 ± 0.02
